Assay results reported in patent US5620676A, “Biologically active ATP analogs” (priority 1995, dated 1997).
Several values for one entry are separate records, joined by “and”; a condition that tells them apart may be missing. Identical values can stand only once. Entries after “also recorded” stand apart in the source; their conditions may differ. Like-named read-outs stand apart in the source and are kept apart here.

Tests used:
[1] = target: T1, P2Y receptor (turkey erythrocyte membranes) (Meleagris gallopavo, UniProt P49652); test: Stimulation of phospholipase C (inositol phosphate formation) in turkey erythrocyte membranes; format: biochemical; settings: for maximal level (100%) of [3H]inositol phosphate accumulation: with GTPγS and maximal concentration of agonist
T1 construct: from tissue; host or cells: washed turkey erythrocytes, ghosts prepared by hypotonic lysis
T1 sequence (P49652 whole entry): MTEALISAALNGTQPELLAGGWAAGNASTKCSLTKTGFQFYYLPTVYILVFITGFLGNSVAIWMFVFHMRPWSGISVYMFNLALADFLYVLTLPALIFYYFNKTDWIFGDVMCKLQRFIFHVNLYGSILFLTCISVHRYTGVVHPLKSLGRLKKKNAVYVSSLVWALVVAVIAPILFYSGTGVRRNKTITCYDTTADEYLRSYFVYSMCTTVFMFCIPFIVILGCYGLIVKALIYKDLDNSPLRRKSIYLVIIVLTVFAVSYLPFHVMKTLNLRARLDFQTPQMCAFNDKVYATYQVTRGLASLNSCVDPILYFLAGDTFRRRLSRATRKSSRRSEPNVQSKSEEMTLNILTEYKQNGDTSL
Outline: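 Erythrocytes were labelled 18-24 h at 37 °C with [3H]myoinositol, and ghosts were made by hypotonic lysis. Ghosts (≈175 μg protein) were incubated 5 min at 30 °C in Hepes buffer pH 7.0 with 1 μM GTPγS and nucleotide analogs. Total [3H]inositol phosphates were purified by anion exchange; K0.5 averaged from 3-8 dose-response curves.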

[2] = target: T2, P2Y receptor (taenia coli) (Cavia porcellus, UniProt P59902); test: Relaxation of carbachol-contracted guinea pig taenia coli
T2 construct: Relaxant responses mediated via P2Y receptors were examined in guinea pig taenia coli; from tissue; host or cells: guinea pig taenia coli (carbachol-contracted)
T2 sequence (P59902 whole entry): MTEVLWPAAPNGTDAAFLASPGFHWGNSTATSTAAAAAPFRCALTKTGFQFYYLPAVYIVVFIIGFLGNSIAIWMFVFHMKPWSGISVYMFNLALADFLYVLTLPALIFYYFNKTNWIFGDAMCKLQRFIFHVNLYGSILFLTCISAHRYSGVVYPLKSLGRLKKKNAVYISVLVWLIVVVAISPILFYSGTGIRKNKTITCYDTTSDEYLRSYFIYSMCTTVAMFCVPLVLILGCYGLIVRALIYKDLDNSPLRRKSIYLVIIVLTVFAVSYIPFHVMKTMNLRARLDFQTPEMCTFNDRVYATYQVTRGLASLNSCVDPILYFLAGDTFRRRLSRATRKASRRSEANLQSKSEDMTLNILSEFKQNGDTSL
Outline: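 Guinea pig taenia coli precontracted with 50 nM carbachol; relaxation to applied P2Y agonists expressed as percentage relaxation against negative log molar agonist concentration.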

[3] = target: T3, P2X receptor (saphenous artery) (Oryctolagus cuniculus, UniProt G1U3D6); test: Contraction of rabbit saphenous artery; settings: rabbit saphenous artery; for activation at 10 µM: read-out: response at 10 μM relative to the contraction produced by 1 μM α,MeATP, saph. artery
T3 construct: and rabbit saphenous artery; from tissue; host or cells: rabbit saphenous artery
T3 sequence (G1U3D6 1-399): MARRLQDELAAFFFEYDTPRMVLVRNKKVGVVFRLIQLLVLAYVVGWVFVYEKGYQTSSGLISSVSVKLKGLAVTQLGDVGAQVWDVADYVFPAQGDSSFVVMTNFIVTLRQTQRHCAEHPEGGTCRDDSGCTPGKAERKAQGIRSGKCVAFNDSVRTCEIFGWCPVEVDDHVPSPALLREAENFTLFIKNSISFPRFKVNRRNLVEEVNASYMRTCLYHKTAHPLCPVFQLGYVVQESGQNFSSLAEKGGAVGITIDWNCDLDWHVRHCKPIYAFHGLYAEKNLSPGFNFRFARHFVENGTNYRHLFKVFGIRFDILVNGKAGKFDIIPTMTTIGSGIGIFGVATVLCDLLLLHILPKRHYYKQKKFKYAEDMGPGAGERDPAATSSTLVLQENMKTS
Outline: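 Contraction of isolated rabbit saphenous artery, standard organ-bath methods; responses at 10 μM expressed as percentage of contraction produced by 1 μM α,MeATP. Highest analogue concentrations tested were 3-30 […].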

[4] = tested on: P2Y receptor (aorta endothelium); test: Relaxation of noradrenalin-contracted rabbit aorta; settings: rabbit aorta; log molar units
[5] = target: P2Y receptor (mesenteric artery); test: Relaxation of rabbit mesenteric artery; settings: log molar units
Text: Muscular relaxation/contraction: Relaxant responses mediated via P2Y receptors were examined in guinea pig taenia coli, rabbit aorta, and rabbit mesenteric artery, as described by Hoyle et al. (Br. J. Pharmacol., 107, 367-374 (1992a)), Burnstock et al., (Br. J. Pharmacol., 90, 383-391 (1987a)), and Rubino et al., (Eur. J. Pharmacol., 212, 237-240 (1992)).

[6] = turkey erythrocyte membranes, mean ± S.E.M. for at least 2 determinations, read-out: phosphatidyl inositol metabolism (K0.5, nM) erythrocyte

Compound	activity/potency in words, turkey erythrocyte ([1]; turkey erythrocyte membranes)	EC50 [1, 6]	EC50 ([1]; turkey erythrocyte membranes, read-out: K0.5)	maximal level (100%) of [3H]inositol phosphate accumulation [1]	EC50 [2]	activity/potency in words, saphenous artery [3]	activation at 10 µM [3]	relaxation pD2, aorta [4]	relaxation pD2, mes. artery [5]	fold diminished potency upon N6-methylation, turkey erythrocyte ([1]; relative to 2-(5-hexenyl)thio-ATP)	EC50 ([1]; turkey erythrocyte membranes, read from graph, read-out: K0.5)	relaxation pD2, taenia coli ([2]; guinea pig taenia coli, log molar units)
N#CCCCCCCSc1nc(N)c2ncn([C@@H]3O[C@H](COP(=O)(O)OP(=O)(O)OP(=O)(O)O)[C@@H](O)[C@H]3O)c2n1 [2-(6-Cyanohexylthio)-ATP, 2-(6-Cyanohexylthio)adenosine-5'-triphosphate]	at least two orders of magnitude more potent; also recorded: about three orders of magnitude more potent	10 ± 5 nM	5 to 30 nM and ~10 nM	6000 cpm	1.58 nM	at best weak agonists in the saphenous artery	9.2%	6.9	7.0			
C=CCCCCSc1nc(NC)c2ncn([C@@H]3O[C@H](COP(=O)(O)OP(=O)(O)OP(=O)(O)O)[C@@H](O)[C@H]3O)c2n1 [N^6 -Me-2-(5-hexenyl)-thio-ATP, N^6 -Me-2-(5-hexenylthio)adenosine 5'-triphosphate]		26 ± 7 nM		9150 cpm			1.5%	5.6	6.0	2.6 -fold	10 nM	7.2
